The text below walks through data of US10519150B2, “Salts of morpholine derivative, crystal forms thereof, processes for producing the same, pharmaceutical compositions including the same, and use thereof” (SHANGHAI PHARMACEUTICALS HOLDING CO., LTD., priority 2015, dated 2019).

Entries after “also recorded” stand apart in the source; their conditions may differ. Where a name gives a salt, the structure may show the parent alone.

Data set [1] is described as follows: Dynamic Vapor Sorption Analysis (DVS). The class given is physicochemical. The settings on record: for hygroscopicity in words: text statement. The procedure:
Dynamic Vapor Sorption Analysis (DVS) data was taken from a TA Instruments Q5000 TGA, instrument control software was Thermal Advantage, and analysis software was Universal Analysis. Generally, 1 to 10 mg of the sample was placed in a platinum crucible, the TA software generally recorded the weight change of the sample as the relative humidity changed from 0% to 80% to 0%. According to the specific conditions of the sample, different adsorption and desorption steps might also be applied to the sample.

Data set [2] can be described thus: Stability test under oxidation condition. The format is physicochemical. The settings on record: for Types of new impurities (type) / The decomposed amount (%): closed container with hydrogen peroxide urea, 40° C., 12 days; for The decomposed amount (%): chiral HPLC vs day 0; for stability under oxidation condition in words: text statement. How it is done: The stability test was conducted on 10 mg of each of the free base and salts of the morpholine derivative in the examples under oxidation condition.

Data set [3] is described as follows: Hygroscopicity test (weight change as humidity increased from 20% to 80%). The settings on record: for Weight change in 20%-80% humidity: 5 mg sample, humidity increased from 20% to 80%; for Level (hygroscopicity): 20%-80% humidity. The class given is physicochemical. The procedure:
5 mg of each of the salts of the morpholine derivative in the examples was measured for their weight change as the humidity was increased from 20% to 80%.

The nature of data set [4]: Solubility test in pure water. The settings on record: for Solubility: pure water, 25° C., 5 mg sample; for water solubility: summary statement in description. The class given is physicochemical. The procedure: 5 mg of each of the free base and salts of the morpholine derivative in Examples 1-7 was added with pure water gradually at 25° C., until all the samples were completely dissolved. The solubility of each sample was calculated based on the actual weight of the sample and the amount of water.

Data set [5] can be described thus: Stability test under light condition. The format is physicochemical. The settings on record: for stability under light condition in words: text statement; for The decomposed amount (%): light box 4500 Lx ± 500 Lx, 25° C., 12 days, chiral HPLC vs day 0. How it is done: The stability test was carried out on 10 mg of each of the free base, salts of the morpholine derivative in Examples 1-6 under light condition.

For data set [6] the following is noted: background statement on prior-art free base; cited from earlier work.
The conditions of data set [7]: background statement on prior-art free base; cited from earlier work. The source holds these as a separate data set.

With `COC(=O)NCCCn1nc([C@@H](C)N(C(=O)[C@H]2CNCCO2)C2CC2)c2ccc(C)nc21` [morpholine derivative acetate], in data set [1] (0% of the initial humidity), the “DVS weight loss during the drying stage” value was “about 5%”. In addition, the “DVS moisture absorbed, amount of its weight” value in data set [1] (20% to 60% humidity) was determined as 6.4%. In data set [1] (90% of humidity), the “DVS moisture absorbed, amount of its weight” value turned out to be 40%. For the same compound, the hygroscopicity in words entry in data set [1] is given as “deliquesced”. In data set [2], the “Types of new impurities (type)” value turned out to be 5 type and the “The decomposed amount (%)” value is given as 95.71%. Besides, the “Weight change in 20%-80% humidity” value in data set [3] amounted to 21.30%. Also, in data set [4], the Solubility – broadly, the dissolved amount per volume that the medium holds – is 150 to 300 mg/mL and the water solubility was 150 to 300 mg/mL. In addition, the “stability under light condition in words” value in data set [5] is recorded as “good thermal stability”.
On to `COC(=O)NCCCn1nc([C@@H](C)N(C(=O)[C@H]2CNCCO2)C2CC2)c2ccc(C)nc21` [morpholine derivative free base, methyl (3-(3-((R)-1-((R)—N-cyclopropylmorpholine-2-carboxamido)ethyl)-6-methyl-1H-pyrazolo[3,4-b]pyridin-1-yl)n-propyl)carbamate, reference compound], for which the “water solubility in words” value in data set [6] is listed as “poor water solubility”. Also, in data set [2], the “Types of new impurities (type)” value was found to be 6 type and the “The decomposed amount (%)” value is listed as 38.0%. Also, the “Level (hygroscopicity)” value in data set [3] is “difficult”. Also, the “oxidation stability in words” value in data set [7] is “relatively easy to be oxidized”. Moreover, the Solubility in data set [4] is 5 to 10 mg/mL. In data set [5], the “The decomposed amount (%)” value is on record as 100%.
Consider `COC(=O)NCCCn1nc([C@@H](C)N(C(=O)[C@H]2CNCCO2)C2CC2)c2ccc(C)nc21` [morpholine derivative hydrochloride], for which, in data set [1] (0% to 60% RH), the “DVS water absorbed in 0% to 60% RH” value is listed as 15%. Further, in data set [1], the hygroscopicity in words entry was “deliquescent; also recorded: very hydroscopic”. Besides, in data set [2], the “Types of new impurities (type)” value is 6 type and the “The decomposed amount (%)” value came to 63.53%. In data set [3], the “Weight change in 20%-80% humidity” value was 31.80% and the “Level (hygroscopicity)” value is recorded as “Very easy”. In data set [4], this compound registered a Solubility greater than 500 mg/mL and a water solubility greater than 500 mg/mL. Further, in data set [5], the “The decomposed amount (%)” value was determined as 5.27% and the “stability under light condition in words” value is “good thermal stability”.
For the compound `COC(=O)NCCCn1nc([C@@H](C)N(C(=O)[C@H]2CNCCO2)C2CC2)c2ccc(C)nc21` [morpholine derivative malate], the “DVS weight change in a range of 20%-80% humidity” value in data set [1] is on record as “about 1.2%”. Moreover, in data set [2], the “Types of new impurities (type)” value is 2 type, the “The decomposed amount (%)” value was 8.46% and the “stability under oxidation condition in words” value was “better stability”. For the same compound, in data set [3], the “Weight change in 20%-80% humidity” value is given as 1.70%. In data set [4], this compound showed a Solubility of 100 mg/mL and a water solubility of roughly 100 mg/mL. In data set [5], the “The decomposed amount (%)” value worked out at 2.05% and the “stability under light condition in words” value is “better stability”.
On to `COC(=O)NCCCn1nc([C@@H](C)N(C(=O)[C@H]2CNCCO2)C2CC2)c2ccc(C)nc21` [morpholine derivative naphthalene disulfonate], for which the hygroscopicity in words entry in data set [1] is on record as “very hydroscopic”. In data set [2], the “Types of new impurities (type)” value turned out to be 7 type and the “The decomposed amount (%)” value was 51.47%. The “Level (hygroscopicity)” value in data set [3] is “Very easy”. In data set [4], this compound returned a Solubility greater than 500 mg/mL and a water solubility greater than 500 mg/mL. For the same compound, in data set [5], the “The decomposed amount (%)” value was 12.58% and the “stability under light condition in words” value is given as “good thermal stability”.
Turning to `COC(=O)NCCCn1nc([C@@H](C)N(C(=O)[C@H]2CNCCO2)C2CC2)c2ccc(C)nc21` [morpholine derivative tartrate crystal form A], in data set [1], the “DVS weight change in a range of 20%-80% humidity” value was “about 1.5%” and the hygroscopicity in words result is listed as “hardly hydroscopic”. For the same compound, the hygroscopicity in words entry in data set [1] (listed as crystal form A) is on record as “hardly hydroscopic”. In addition, in data set [2], the “Types of new impurities (type)” value is 6 type and the “The decomposed amount (%)” value was determined as 17.93%. Further, in data set [3], the “Weight change in 20%-80% humidity” value came out at 1.50% and the “Level (hygroscopicity)” value is recorded as “difficult”. Moreover, in data set [4], the Solubility came to 100 mg/mL. Further, the “The decomposed amount (%)” value in data set [5] came out at 2.14%. The “stability under light condition in words” value in data set [5] (listed as crystal form A) is given as “equivalent stability”.
Regarding `COC(=O)NCCCn1nc([C@@H](C)N(C(=O)[C@H]2CNCCO2)C2CC2)c2ccc(C)nc21` [morpholine derivative tartrate crystal form B], in data set [1], the “DVS weight change in a range of 20%-80% humidity” value is recorded as “about 7%” and the hygroscopicity in words entry was “relatively hydroscopic”. Besides, the hygroscopicity in words result in data set [1] (listed as crystal form B) is recorded as “relatively hydroscopic”. In data set [2], the “Types of new impurities (type)” value amounted to 4 type and the “The decomposed amount (%)” value is given as 3.24%. The “stability under oxidation condition in words” value in data set [2] (listed as crystal form B) was “more stable than crystal form A”. In addition, in data set [3], the “Weight change in 20%-80% humidity” value turned out to be 6.58% and the “Level (hygroscopicity)” value is recorded as “easy”. The compound further yielded a Solubility in data set [4] of 150 to 300 mg/mL. For the same compound, the “The decomposed amount (%)” value in data set [5] was determined as 3.61%. Besides, the “stability under light condition in words” value in data set [5] (listed as crystal form B) is reported as “equivalent stability”.
With `COC(=O)NCCCn1nc([C@@H](C)N(C(=O)[C@H]2CNCCO2)C2CC2)c2ccc(C)nc21` [morpholine derivative tartrate dihydrate], the “DVS weight change in a range of 0%-80% humidity” value in data set [1] (0%-80% humidity) is “about 11.06%”. The hygroscopicity in words result in data set [1] is given as “relatively hydroscopic”. Also, in data set [3], the “Weight change in 20%-80% humidity” value amounted to 9.05% and the “Level (hygroscopicity)” value was “easy”. In addition, the Solubility in data set [4] was 100 mg/mL.
The compound `COC(=O)NCCCn1nc([C@@H](C)N(C(=O)[C@H]2CNCCO2)C2CC2)c2ccc(C)nc21` [morpholine derivative tartrate] gave a water solubility in data set [4] of 50 to 300 mg/mL.
